Laboratory results published in the CheMixHub viscosity set.

Assay: xn = mol fraction of the nth substance listed

c1ccccc1 + CCCCCC
Conditions | viscosity [mPa·s]
293.15 K, 101.33 kPa, x1 = 0.1713 | 0.327
293.15 K, 101.33 kPa, x1 = 0.3148 | 0.345
293.15 K, 101.33 kPa, x1 = 0.4632 | 0.371
293.15 K, 101.33 kPa, x1 = 0.5799 | 0.406
293.15 K, 101.33 kPa, x1 = 0.7266 | 0.454
293.15 K, 101.33 kPa, x1 = 0.8082 | 0.494
293.15 K, 101.33 kPa, x1 = 0.9173 | 0.57
298 K, 101.33 kPa, x1 = 0.1026 | 0.3104
298 K, 101.33 kPa, x1 = 0.2013 | 0.3191
298 K, 101.33 kPa, x1 = 0.2817 | 0.3276
298 K, 101.33 kPa, x1 = 0.4385 | 0.3516
298 K, 101.33 kPa, x1 = 0.5967 | 0.3871
298 K, 101.33 kPa, x1 = 0.7149 | 0.4256
298 K, 101.33 kPa, x1 = 0.794 | 0.46
298 K, 101.33 kPa, x1 = 0.8993 | 0.5212
298.1 K, 101 kPa, x2 = 0.2 | 0.469
298.1 K, 101 kPa, x2 = 0.4 | 0.4
298.1 K, 101 kPa, x2 = 0.5 | 0.377
298.1 K, 101 kPa, x2 = 0.6 | 0.359
298.1 K, 101 kPa, x2 = 0.8 | 0.334
298.15 K, 101 kPa, x2 = 0.07 | 0.556
298.15 K, 101 kPa, x2 = 0.182 | 0.5
298.15 K, 101 kPa, x2 = 0.265 | 0.489
298.15 K, 101 kPa, x2 = 0.405 | 0.429
298.15 K, 101 kPa, x2 = 0.563 | 0.4
298.15 K, 101.33 kPa, x1 = 0.0651 | 0.2983
298.15 K, 101.33 kPa, x1 = 0.1218 | 0.3034
298.15 K, 101.33 kPa, x1 = 0.1281 | 0.3134
298.15 K, 101.33 kPa, x1 = 0.2665 | 0.327
298.15 K, 101.33 kPa, x1 = 0.2763 | 0.3184
298.15 K, 101.33 kPa, x1 = 0.405 | 0.3471
298.15 K, 101.33 kPa, x1 = 0.4144 | 0.339
298.15 K, 101.33 kPa, x1 = 0.5704 | 0.3822
298.15 K, 101.33 kPa, x1 = 0.5822 | 0.3759
298.15 K, 101.33 kPa, x1 = 0.7092 | 0.4165
298.15 K, 101.33 kPa, x1 = 0.7216 | 0.4254
298.15 K, 101.33 kPa, x1 = 0.821 | 0.4673
298.15 K, 101.33 kPa, x1 = 0.8811 | 0.5139
298.15 K, 101.33 kPa, x1 = 0.9055 | 0.5208
298.15 K, 101.33 kPa, x2 = 0.0488 | 0.55
298.15 K, 101.33 kPa, x2 = 0.05393 | 0.5662
298.15 K, 101.33 kPa, x2 = 0.1122 | 0.5225
298.15 K, 101.33 kPa, x2 = 0.1676 | 0.466
298.15 K, 101.33 kPa, x2 = 0.2079 | 0.472
298.15 K, 101.33 kPa, x2 = 0.2486 | 0.434
298.15 K, 101.33 kPa, x2 = 0.3095 | 0.4294
298.15 K, 101.33 kPa, x2 = 0.3321 | 0.397
298.15 K, 101.33 kPa, x2 = 0.3638 | 0.386
298.15 K, 101.33 kPa, x2 = 0.4168 | 0.373
298.15 K, 101.33 kPa, x2 = 0.4197 | 0.3921
298.15 K, 101.33 kPa, x2 = 0.4682 | 0.358
298.15 K, 101.33 kPa, x2 = 0.5004 | 0.3712
298.15 K, 101.33 kPa, x2 = 0.5206 | 0.347
298.15 K, 101.33 kPa, x2 = 0.5934 | 0.3533
298.15 K, 101.33 kPa, x2 = 0.626 | 0.328
298.15 K, 101.33 kPa, x2 = 0.6857 | 0.3394
298.15 K, 101.33 kPa, x2 = 0.7434 | 0.312
298.15 K, 101.33 kPa, x2 = 0.7913 | 0.3268
298.15 K, 101.33 kPa, x2 = 0.8753 | 0.299
298.15 K, 101.33 kPa, x2 = 0.8834 | 0.3202
298.15 K, 101.33 kPa, x2 = 0.9498 | 0.294
308.15 K, 101 kPa, x2 = 0.07 | 0.486
308.15 K, 101 kPa, x2 = 0.182 | 0.441
308.15 K, 101 kPa, x2 = 0.265 | 0.415
308.15 K, 101 kPa, x2 = 0.405 | 0.384
308.15 K, 101 kPa, x2 = 0.563 | 0.361
323.15 K, 101 kPa, x2 = 0.07 | 0.407
323.15 K, 101 kPa, x2 = 0.182 | 0.374
323.15 K, 101 kPa, x2 = 0.265 | 0.356
323.15 K, 101 kPa, x2 = 0.405 | 0.334
323.15 K, 101 kPa, x2 = 0.563 | 0.32

O=[N+]([O-])c1ccccc1 + Cc1ccccc1
viscosity [mPa·s], 101 kPa
Conditions | x1 = 0.115 | x1 = 0.227 | x1 = 0.344 | x1 = 0.457 | x1 = 0.577 | x1 = 0.675 | x1 = 0.787 | x1 = 0.87
298.15 K | 0.622 | 0.702 | 0.803 | 0.894 | 1.03 | 1.169 | 1.374 | 1.542
303.15 K | 0.586 | 0.66 | 0.743 | 0.837 | 0.956 | 1.08 | 1.252 | 1.42
308.15 K | 0.554 | 0.618 | 0.694 | 0.783 | 0.922 | 1.042 | 1.157 | 1.313
